# Data from the supplement of paper PMC4862054.
# Values joined by “and” are separate entries in the source; they are usually repeats but may differ in a detail not shown here. Equal entries are not always repeated.
# Columns and labels:
# [1] = test system: BT-474; assay: normalised viability (% of control), CellTiter-Blue; higher = more viable cells (about 100 = DMSO control); conditions: incubation time: 72 h
# In short: (§1)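 Vehicle (100) and a positive kill control (0) anchored the normalisation of each plate, and Z'-factor was used for quality control. Breast cancer cell lines in 20 µl suspension were incubated 72 h over compound in 5 µl medium in 384-well plates, followed by CellTiter-Blue at 560/590 nm. The value is normalised viability at a single listed concentration of the series.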
# [2] = test system: CAL-85-1; assay: as above; conditions: incubation time: 72 h
# In short: as §1
# [3] = test system: HCC1143; assay: as above; conditions: incubation time: 72 h
# In short: as §1
# [4] = test system: SK-BR-3; assay: as above; conditions: incubation time: 72 h
# In short: as §1
# [5] = test system: CAL-51; assay: as above; conditions: incubation time: 72 h
# In short: as §1
# [6] = test system: MDA-MB-231; assay: as above; conditions: incubation time: 72 h
# In short: as §1
# [7] = test system: MDA-MB-468; assay: as above; conditions: incubation time: 72 h
# In short: as §1
# [8] = test system: BT-549; assay: as above; conditions: incubation time: 72 h
# In short: as §1
# [9] = test system: HCC1937; assay: as above; conditions: incubation time: 72 h
# In short: as §1
# [10] = test system: HCC1599; assay: as above; conditions: incubation time: 72 h
# In short: as §1
# [11] = test system: HDQ-P1; assay: as above; conditions: incubation time: 72 h
# In short: as §1
# [12] = test system: DU-4475; assay: normalised viability (% of control), CellTiter-Blue; higher = more viable cells (about 100 = DMSO control); conditions: 3000 nM; incubation time: 72 h
# Experimental: (§2)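 DSRT, CellTiter-Blue viability, 72 h incubation. Signal is normalised to DMSO and benzethonium chloride controls. Value is the normalised response at dose 8.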
# [13] = test system: CAL-85-1; assay: as above; conditions: 3000 nM; incubation time: 72 h
# Experimental: as §2
# [14] = test system: CAL-148; assay: as above; conditions: 3000 nM; incubation time: 72 h
# Experimental: as §2
# [15] = test system: CAL-51; assay: as above; conditions: 3000 nM; incubation time: 72 h
# Experimental: as §2
# [16] = test system: HDQ-P1; assay: as above; conditions: 3000 nM; incubation time: 72 h
# Experimental: as §2
# [17] = test system: MDA-MB-453; assay: as above; conditions: 3000 nM; incubation time: 72 h
# Experimental: as §2
# [18] = test system: DU-4475; assay: drug sensitivity score (DSS), CellTiter-Glo (DSS (AUC-based score)); higher = stronger drug effect (viability inhibition or cytotoxicity); extreme values may be limits of the assay; conditions: incubation time: 72 h
# In short: (§3)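 A drug sensitivity score was derived from the area under each fitted dose-response curve. Breast cancer cells (20 µl suspension) were seeded onto compound in 384-well plates, using 5 concentrations 10-fold apart over a compound-specific 10,000-fold range, and incubated 72 h. Readouts were CellTox Green fluorescence and then CellTiter-Glo luminescence, with every plate normalised to 0.1 % DMSO and a positive kill control.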
# [19] = test system: HCC1143; assay: as above; conditions: incubation time: 72 h
# In short: as §3
# [20] = test system: MFM-223; assay: as above; conditions: incubation time: 72 h
# In short: as §3
# [21] = test system: MCF-10A; assay: as above; conditions: incubation time: 72 h
# In short: as §3
# [22] = test system: MDA-MB-436; assay: as above; conditions: incubation time: 72 h
# In short: as §3
# [23] = test system: HCC1599; assay: as above; conditions: incubation time: 72 h
# In short: as §3
# [24] = test system: HDQ-P1; assay: as above; conditions: incubation time: 72 h
# In short: as §3
# [25] = test system: MDA-MB-453; assay: as above; conditions: incubation time: 72 h
# In short: as §3
structure (smiles),measurement,setting,value
CCc1cncnc1N1CCN(Cc2nc3ccc(C(F)(F)F)cc3[nH]2)CC1,normalised viability,[1]; 10 nM,115%
same,normalised viability,[1]; 1000 nM,118%
same,normalised viability,[1]; 10000 nM,83.7%
same,normalised viability,[2]; 3 nM,102%
same,normalised viability,[2]; 30 nM,97.4%
same,normalised viability,[2]; 100 nM,101%
same,normalised viability,[3]; 10 nM,103%
same,normalised viability,[3]; 1000 nM,106%
same,normalised viability,[3]; 10000 nM,109%
same,normalised viability,[4]; 10 nM,105%
same,normalised viability,[4]; 1000 nM,104%
same,normalised viability,[4]; 10000 nM,117%
same,normalised viability,[5]; 3 nM,94.3%
same,normalised viability,[5]; 30 nM,90%
same,normalised viability,[5]; 100 nM,91.5%
same,normalised viability,[6]; 10 nM,96.9%
same,normalised viability,[6]; 1000 nM,98.2%
same,normalised viability,[6]; 10000 nM,106%
same,normalised viability,[7]; 10 nM,107%
same,normalised viability,[7]; 1000 nM,108%
same,normalised viability,[7]; 10000 nM,103%
same,normalised viability,[8]; 10 nM,78.4%
same,normalised viability,[8]; 1000 nM,102%
same,normalised viability,[8]; 10000 nM,59.9%
same,normalised viability,[9]; 10 nM,108%
same,normalised viability,[9]; 1000 nM,107%
same,normalised viability,[9]; 10000 nM,86.8%
same,normalised viability,[10]; 10 nM,77.2%
same,normalised viability,[10]; 1000 nM,83%
same,normalised viability,[10]; 10000 nM,90.2%
same,normalised viability,[11]; 3 nM,116%
same,normalised viability,[11]; 30 nM,108%
same,normalised viability,[11]; 100 nM,108%
same,normalised viability,[12],100%
same,normalised viability,[13],100%
same,normalised viability,[14],104%
same,normalised viability,[15],88.9%
same,normalised viability,[16],108%
same,normalised viability,[17],88.7%
same,drug sensitivity score,[18],0
same,drug sensitivity score,[19],0
same,drug sensitivity score,[20],0
same,drug sensitivity score,[21],0
same,drug sensitivity score,[22],0
same,drug sensitivity score,[23],0
same,drug sensitivity score,[24],0
same,drug sensitivity score,[25],1.08
C=CC(=O)N1CCC[C@@H](n2nc(-c3ccc(Oc4ccccc4)cc3)c3c(N)ncnc32)C1 [Ibrutinib],drug sensitivity score,[18],0
same,drug sensitivity score,[19],0
same,drug sensitivity score,[20],0
same,drug sensitivity score,[21],4.67
same,drug sensitivity score,[22],0
same,drug sensitivity score,[23],0
same,drug sensitivity score,[24],3.29
same,drug sensitivity score,[25],5.93
C=CCc1cccc(/C=N/NC(=O)CN2CCN(Cc3ccccc3)CC2)c1O [PAC-1],drug sensitivity score,[18],4.02
same,drug sensitivity score,[19],1.38
same,drug sensitivity score,[20],1.4
same,drug sensitivity score,[21],0
same,drug sensitivity score,[22],5.19
same,drug sensitivity score,[23],1.71
same,drug sensitivity score,[24],1.79
same,drug sensitivity score,[25],5.01
Nc1ncn([C@H]2C[C@H](O)[C@@H](CO)O2)c(=O)n1 [Decitabine],normalised viability,[1]; 10 nM,109% and 104%
same,normalised viability,[1]; 1000 nM,89.4% and 86.7%
same,normalised viability,[1]; 10000 nM,95.1% and 79.7%
same,normalised viability,[2]; 3 nM,91.9% and 103%
same,normalised viability,[2]; 30 nM,83.4% and 91.2%
same,normalised viability,[2]; 100 nM,93.6% and 93.9%
same,normalised viability,[3]; 10 nM,82.7% and 80.8%
same,normalised viability,[3]; 1000 nM,68.5% and 78.8%
same,normalised viability,[3]; 10000 nM,56% and 59.8%
same,normalised viability,[4]; 10 nM,84.5% and 98.1%
same,normalised viability,[4]; 1000 nM,90.2% and 88.1%
same,normalised viability,[4]; 10000 nM,69.1% and 74.5%
same,normalised viability,[5]; 3 nM,116% and 108%
same,normalised viability,[5]; 30 nM,117% and 101%
same,normalised viability,[5]; 100 nM,101% and 96.8%
same,normalised viability,[6]; 10 nM,86.9% and 92.8%
same,normalised viability,[6]; 1000 nM,74% and 92.3%
same,normalised viability,[6]; 10000 nM,69.8% and 71.6%
same,normalised viability,[7]; 10 nM,109% and 102%
same,normalised viability,[7]; 1000 nM,28.7% and 29.4%
same,normalised viability,[7]; 10000 nM,27% and 29.1%
same,normalised viability,[8]; 10 nM,94.6% and 101%
same,normalised viability,[8]; 1000 nM,81.7% and 89.3%
same,normalised viability,[8]; 10000 nM,57.7% and 65.1%
same,normalised viability,[9]; 10 nM,120% and 99%
same,normalised viability,[9]; 1000 nM,77.2% and 76.6%
same,normalised viability,[9]; 10000 nM,69.2% and 62.8%
same,normalised viability,[10]; 10 nM,112% and 107%
same,normalised viability,[10]; 10000 nM,82% and 106%
same,normalised viability,[11]; 30 nM,93% and 96.6%
same,normalised viability,[11]; 100 nM,96.1% and 92%
same,normalised viability,[12],69.8% and 78.9%
same,normalised viability,[13],83% and 88.5%
same,normalised viability,[14],81.2% and 73.7%
same,normalised viability,[15],98.4% and 79.8%
same,normalised viability,[16],88.6% and 93.3%
same,normalised viability,[17],87% and 93.1%
same,drug sensitivity score,[18],0
same,drug sensitivity score,[19],0
same,drug sensitivity score,[20],0
same,drug sensitivity score,[21],0
same,drug sensitivity score,[22],0
same,drug sensitivity score,[23],0
same,drug sensitivity score,[24],0.141
same,drug sensitivity score,[25],0
